From patent US11046699B2, “Pyrazolo-pyrimidin-amino-cycloalkyl compounds and their therapeutic uses” (RAPT THERAPEUTICS, INC., priority 2018, dated 2021)
pIC50: −log10 of the molar value.

The compounds below were run against GCN2 (Homo sapiens, UniProt Q9P2K8) (assay: GCN2 enzymatic endpoint assay: phosphorylation of GFP-eIF2α measured by TR-FRET (Lanthascreen)). Conditions: GCN2 biochemical IC50; 4 nM GCN2, 2 μM ATP, 80 nM GFP-eIF2α, 90 min RT; read-out: GCN2 activity.
Format: biochemical
In short: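 Phosphorylated eIF2α read by Lanthascreen TR-FRET (acceptor 520 nm over donor 495 nm) after EDTA stop. The reaction ran 90 min at room temperature on 80 nM GFP-eIF2α with 2 μM ATP.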

GCN2, sequence (Q9P2K8 whole entry): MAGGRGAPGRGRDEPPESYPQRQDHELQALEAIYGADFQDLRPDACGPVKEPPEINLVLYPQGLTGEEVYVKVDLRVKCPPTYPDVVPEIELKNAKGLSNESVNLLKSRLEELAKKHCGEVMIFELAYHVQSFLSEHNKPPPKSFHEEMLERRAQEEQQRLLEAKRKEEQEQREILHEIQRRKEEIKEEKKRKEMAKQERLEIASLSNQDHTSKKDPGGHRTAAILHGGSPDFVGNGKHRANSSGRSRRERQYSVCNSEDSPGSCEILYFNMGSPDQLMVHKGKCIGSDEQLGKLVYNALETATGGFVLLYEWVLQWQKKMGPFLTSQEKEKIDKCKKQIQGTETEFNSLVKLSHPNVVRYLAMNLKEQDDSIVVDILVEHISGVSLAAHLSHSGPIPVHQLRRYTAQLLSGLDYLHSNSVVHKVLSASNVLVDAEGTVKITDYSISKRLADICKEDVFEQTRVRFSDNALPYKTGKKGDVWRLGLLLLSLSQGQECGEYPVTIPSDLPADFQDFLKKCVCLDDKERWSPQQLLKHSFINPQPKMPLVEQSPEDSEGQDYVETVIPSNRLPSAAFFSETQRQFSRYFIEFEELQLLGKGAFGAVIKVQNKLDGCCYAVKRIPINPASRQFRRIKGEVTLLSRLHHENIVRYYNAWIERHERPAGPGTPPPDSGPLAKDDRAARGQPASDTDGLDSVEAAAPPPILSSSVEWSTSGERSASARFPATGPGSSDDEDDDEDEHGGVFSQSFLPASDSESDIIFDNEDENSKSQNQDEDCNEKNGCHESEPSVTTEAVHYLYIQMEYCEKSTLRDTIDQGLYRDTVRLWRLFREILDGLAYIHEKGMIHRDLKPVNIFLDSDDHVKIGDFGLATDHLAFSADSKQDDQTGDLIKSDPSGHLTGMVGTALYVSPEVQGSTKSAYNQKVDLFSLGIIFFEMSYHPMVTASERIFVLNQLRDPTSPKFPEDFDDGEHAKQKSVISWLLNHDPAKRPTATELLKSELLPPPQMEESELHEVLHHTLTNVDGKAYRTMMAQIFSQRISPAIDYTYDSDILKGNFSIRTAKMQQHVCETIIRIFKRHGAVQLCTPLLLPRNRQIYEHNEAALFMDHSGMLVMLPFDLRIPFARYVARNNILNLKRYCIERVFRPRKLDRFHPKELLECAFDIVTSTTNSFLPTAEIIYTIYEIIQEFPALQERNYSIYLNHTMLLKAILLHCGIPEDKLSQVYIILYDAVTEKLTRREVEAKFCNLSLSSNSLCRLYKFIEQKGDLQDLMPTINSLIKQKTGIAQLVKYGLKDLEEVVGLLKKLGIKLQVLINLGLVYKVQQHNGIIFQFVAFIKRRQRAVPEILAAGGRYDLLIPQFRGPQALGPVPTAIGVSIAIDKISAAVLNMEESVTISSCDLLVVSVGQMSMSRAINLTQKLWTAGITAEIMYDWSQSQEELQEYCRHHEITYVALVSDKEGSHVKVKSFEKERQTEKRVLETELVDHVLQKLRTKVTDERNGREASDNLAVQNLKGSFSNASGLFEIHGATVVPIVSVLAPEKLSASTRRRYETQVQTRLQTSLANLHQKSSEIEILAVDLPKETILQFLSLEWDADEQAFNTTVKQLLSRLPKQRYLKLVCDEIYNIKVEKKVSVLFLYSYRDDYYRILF

| pIC50 | Compound |
| --- | --- |
| 6.70 to 7.60 | COCCNC(=O)[C@@H]1CC[C@@H](Nc2ncc3c(Br)nn(-c4ccc(-c5ncco5)cc4)c3n2)C1 [Example 26, (1R,3R)-3-((3-bromo-1-(4-(oxazol-2-yl)phenyl)-1H-pyrazolo[3,4-d]pyrimidin-6-yl)amino)-N-(2-methoxyethyl)cyclopentane-1-carboxamide] |

Same assay, conditions: tested as described in Example 77; compound and/or hydrochloride, dihydrochloride or trifluoroacetic acid salt; read-out: IC 50 Activity

| Compound | pIC50 |
| --- | --- |
| CNC(=O)[C@]1(C)CC[C@@H](Nc2ncc3c(Br)nn(-c4ccc5nc(N(C)C)ncc5c4)c3n2)C1 | 6.70 to 7.60 |
| C[C@@]1(C(=O)N2CCN3C(=O)CC[C@@H]3C2)CC[C@@H](Nc2ncc3c(Br)nn(-c4cc(F)c5ncccc5c4)c3n2)C1 | 6.70 to 7.60 |
| CNC(=O)[C@]1(C)CC[C@@H](Nc2ncc3c(Br)nn(-c4ccc5c(c4)CCC(=O)N5CC#N)c3n2)C1 [(1R,3R)-3-[[3-bromo-1-[1-(cyano-methyl)-2-oxo-3,4-dihydroquinolin-6-yl]pyrazolo[3,4-d]pyrimidin-6-yl]amino]-N,1-dimethyl-cyclopentane-carboxamide] | 6.70 to 7.60 |
| CNC(=O)[C@]1(C)CC[C@@H](Nc2ncc3c(Br)nn(-c4ccc5nc(N6CCOCC6)ncc5c4)c3n2)C1 [(1R,3R)-3-[[3-bromo-1-(2-morpholino-quinazolin-6-yl)pyrazolo[3,4-d]pyrimidin-6-yl]amino]-N,1-dimethyl-cyclopentane-carboxamide; 2,2,2-trifluoroacetic acid] | 6.70 to 7.60 |
| COCCNC(=O)[C@@H]1CC[C@@H](Nc2ncc3c(Br)nn(-c4ccc5cn[nH]c5c4)c3n2)C1 [(1R,3R)-3-((3-bromo-1-(1H-indazol-6-yl)-1H-pyrazolo[3,4-d]pyrimidin-6-yl)amino)-N-(2-methoxyethyl)cyclopentane-1-carboxamide] | 6.00 to 6.30 |
| CNC(=O)[C@]1(C)CC[C@@H](Nc2ncc3c(Br)nn(-c4cc(CNCCOC)cc(OC(F)(F)F)c4)c3n2)C1 [(1R,3R)-3-[[3-bromo-1-[3-[(2-methoxy-ethylamino)methyl]-5-(trifluoromethoxy)phenyl]pyrazolo[3,4-d]pyrimidin-6-yl]amino]-N,1-dimethyl-cyclopentanecarboxamide] | 6.70 to 7.60 |
| CNC(=O)[C@]1(C)CC[C@@H](Nc2ncc3c(Br)nn(-c4cc(Cl)cc(CCC#N)c4)c3n2)C1 | 6.70 to 7.60 |
| CNC(=O)[C@]1(C)CC[C@@H](Nc2ncc3c(Br)nn(-c4ccc(C(=O)c5ccno5)cc4)c3n2)C1 [(1R,3R)-3-[[3-bromo-1-[4-(isoxazole-5-carbonyl)phenyl]pyrazolo[3,4-d]pyrimidin-6-yl]amino]-N,1-dimethyl-cyclopentanecarboxamide] | 6.70 to 7.60 |
| CN1CCN(C(=O)[C@@H]2CC[C@@H](Nc3ncc4c(Br)nn(-c5ccc6ncccc6c5)c4n3)C2)CC1=O [4-((1R,3R)-3-((3-bromo-1-(quinolin-6-yl)-1H-pyrazolo[3,4-d]pyrimidin-6-yl)amino)cyclo-pentane-1-carbonyl)-1-methylpiperazin-2-one] | 6.70 to 7.60 |
| COC(=O)C1CN(C(=O)[C@@H]2CC[C@@H](Nc3ncc4c(Br)nn(-c5ccc6ncccc6c5)c4n3)C2)CCN1 (mixture of isomers) | 6.70 to 7.60 |
| CNC(=O)[C@]1(C)CC[C@@H](Nc2ncc3c(Br)nn(-c4ccc(-c5ncco5)c(C5CCCNC5)c4)c3n2)C1 (stereo partly drawn) [(1R,3R)-3-[[3-bromo-1-[4-oxazol-2-yl-3-(3-piperidyl)phenyl]pyrazolo[3,4-d]pyrimidin-6-yl]amino]-N,1-dimethyl-cyclopentanecarboxamide] | 6.70 to 7.60 |
| C[C@H](N)c1cc(Cl)cc(-n2nc(Br)c3cnc(N[C@@H]4CC[C@@](C)(C(=O)N5CCNCC5)C4)nc32)c1 [[(1R,3R)-3-[[1-[3-[(1S)-1-aminoethyl]-5-chloro-phenyl]-3-bromo-pyrazolo [3,4-d]pyrimidin-6-yl]amino]-1-methyl-cyclopentyl]-piperazin-1-yl-methanone] | 6.70 to 7.60 |
| C[C@@]1(C(=O)N2CCN3C(=O)COCC3C2)CC[C@@H](Nc2ncc3c(Br)nn(-c4cc(F)c5ncccc5c4)c3n2)C1 (stereo partly drawn) [8-[(1R,3R)-3-[[3-bromo-1-(8-fluoro-6-quinolyl)pyrazolo[3,4-d]pyrimidin-6-yl]amino]-1-methyl-cyclopentane-carbonyl]-6,7,9,9a-tetrahydro-1H-pyrazino[2,1-c][1,4]oxazin-4-one] | 6.70 to 7.60 |
| CNC(=O)[C@]1(C)CC[C@@H](Nc2ncc3c(Br)nn(-c4cc(Cl)cc(NC(=O)C5CNC5)c4)c3n2)C1 [N-[3-[3-bromo-6-[[(1R,3R)-3-methyl-3-(methylcarbamoyl)cyclopentyl]amino]pyrazolo[3,4-d]pyrimidin-1-yl]-5-chloro-phenyl]azetidine-3-carboxamide] | 6.70 to 7.60 |
| CNC(=O)[C@]1(C)CCC(Nc2ncc3c(Br)nn(-c4ccc5nn(CCN)cc5c4)c3n2)C1 (stereo partly drawn) [(1R)-3-[[1-[2-(2-aminoethyl)indazol-5-yl]-3-bromo-pyrazolo[3,4-d]pyrimidin-6-yl]amino]-N,1-dimethyl-cyclopentane-carboxamide] | 6.70 to 7.60 |
| N#Cc1cc(-n2nc(Br)c3cnc(N[C@@H]4CC[C@@H](C(=O)NC5CCN(CC(F)(F)F)C5)C4)nc32)cc2cccnc12 (mixture of isomers) | 6.70 to 7.60 |
| OC1CC(Nc2ncc3c(Br)nn(-c4cc(F)c5ncccc5c4)c3n2)C1 (stereo not drawn) [3-[[3-bromo-1-(8-fluoro-6-quinolyl)pyrazolo[3,4-d]pyrimidin-6-yl]amino] cyclobutanol] | 6.70 to 7.60 |
| CNC(=O)[C@]1(C)CC[C@@H](Nc2ncc3c(Br)nn(-c4cc(CCNS(C)(=O)=O)c5ncccc5c4)c3n2)C1 [(1R,3R)-3-[[3-bromo-1-[8-[2-(methane-sulfonamido)ethyl]-6-quinolyl]pyrazolo [3,4-d]pyrimidin-6-yl]amino]-N,1-dimethyl-cyclopentanecarboxamide] | 6.70 to 7.60 |
| CNC(=O)[C@]1(C)CC[C@@H](Nc2ncc3c(Br)nn(-c4cc(C#N)cc(CC#N)c4)c3n2)C1 | 6.70 to 7.60 |
| C[C@H]1COCCN1C(=O)[C@@H]1CC[C@@H](Nc2ncc3c(Br)nn(-c4ccc5ncccc5c4)c3n2)C1 [((1R,3R)-3-((3-bromo-1-(quinolin-6-yl)-1H-pyrazolo[3,4-d]pyrimidin-6-yl)amino)cyclopentyl)((S)-3-methylmorpholino) methanone] | 6.70 to 7.60 |
| CNC(=O)[C@]1(C)CC[C@@H](Nc2ncc3c(Br)nn(-c4cc(O)c5c(c4)OCC(=O)N5C)c3n2)C1 [(1R,3R)-3-[[3-bromo-1-(5-hydroxy-4-methyl-3-oxo-1,4-benzoxazin-7-yl)pyrazolo[3,4-d]pyrimidin-6-yl]amino]-N,1-dimethyl-cyclo-pentanecarboxamide] | 6.70 to 7.60 |
| C[C@H](N)c1cc(Cl)cc(-n2nc(Br)c3cnc(N[C@@H]4CCC5(CC(=O)N(C)C5=O)C4)nc32)c1 (stereo partly drawn) | 6.70 to 7.60 |

Further lines, results first:

| pIC50 | Compound |
| --- | --- |
| 6.70 to 7.60 | CNC(=O)[C@]1(C)CC[C@@H](Nc2ncc3c(Br)nn(-c4ccc(-c5nccs5)cc4)c3n2)C1 [(1R,3R)-3-[[3-bromo-1-(4-thiazol-2-ylphenyl)pyrazolo[3,4-d]pyrimidin-6-yl]amino]-N,1-dimethyl-cyclopentane-carboxamide] |
| 6.70 to 7.60 | CNC(=O)[C@]1(C)CC[C@@H](Nc2ncc3c(Br)nn(-c4ccc(-c5ncco5)c([C@H](C)C#N)c4)c3n2)C1 [(1R,3R)-3-[[3-bromo-1-[3-[(1S)-1-cyanoethyl]-4-oxazol-2-yl-phenyl]pyrazolo[3,4-d]pyrimidin-6-yl]amino]-N,1-dimethyl-cyclopentane-carboxamide] |
| 6.70 to 7.60 | Cc1nnc(-c2ccc(-n3nc(Br)c4cnc(N[C@@H]5CC[C@@](C)(C(=O)N6CCNCC6)C5)nc43)cc2)s1 [[(1R,3R)-3-[[3-bromo-1-[4-(5-methyl-1,3,4-thiadiazol-2-yl)phenyl]pyrazolo [3,4-d]pyrimidin-6-yl]amino]-1-methyl-cyclopentyl]-piperazin-1-yl-methanone] |
| 6.70 to 7.60 | CNC(=O)[C@]1(C)CC[C@@H](Nc2ncc3c(Br)nn(-c4ccc(-c5nnc(C(=O)N6CCOCC6)s5)cc4)c3n2)C1 [(1R,3R)-3-[[3-bromo-1-[4-[5-(morpholine-4-carbonyl)-1,3,4-thiadiazol-2-yl]phenyl]pyrazolo[3,4-d]pyrimidin-6-yl]amino]-N,1-dimethyl-cyclopentanecarboxamide] |
| 6.70 to 7.60 | O=C(NCCO)[C@@H]1CC[C@@H](Nc2ncc3c(Br)nn(-c4ccc5ncccc5c4)c3n2)C1 [(1R,3R)-3-((3-bromo-1-(quinolin-6-yl)-1H-pyrazolo[3,4-d]pyrimidin-6-yl)amino)-N-(2-hydroxyethyl)cyclopentane-1-carboxamide] |
| > 7.60 | CNC(=O)[C@]1(C)CC[C@@H](Nc2ncc3c(Br)nn(-c4ccc5ncc(NC(=O)CCN)cc5c4)c3n2)C1 [(1R,3R)-3-[[1-[3-(3-aminopropanoylamino)-6-quinolyl]-3-bromo-pyrazolo[3,4-d]pyrimidin-6-yl]amino]-N,1-dimethyl-cyclopentanecarboxamide] |
| > 7.60 | N#Cc1cc(-n2nc(Br)c3cnc(N[C@@H]4CC[C@@H](C(=O)N[C@@H]5CNC[C@@H]5F)C4)nc32)cc2cccnc12 [(1R,3R)-3-((3-bromo-1-(8-cyanoquinolin-6-yl)-1H-pyrazolo[3,4-d]pyrimidin-6-yl)amino)-N-((3R,4S)-4-fluoropyrrolidin-3-yl)cyclo-pentane-1-carboxamide] |
| > 7.60 | CNC(=O)[C@]1(C)CC[C@@H](Nc2ncc3c(Br)nn(-c4ccc(-c5nnc(C(C)(C)N)s5)c(F)c4)c3n2)C1 [(1R,3R)-3-[[1-[4-[5-(1-amino-1-methyl-ethyl)-1,3,4-thiadiazol-2-yl]-3-fluoro-phenyl]-3-bromo-pyrazolo[3,4-d]pyrimidin-6-yl]amino]-N,1-dimethyl-cyclopentanecarboxamide] |
| > 7.60 | CN(CC1(C)COC1)C(=O)C1(C)CC[C@@H](Nc2ncc3c(Br)nn(-c4cc(F)c5ncccc5c4)c3n2)C1 (stereo partly drawn) |
| > 7.60 | CNC(=O)[C@]1(COC)CC[C@@H](Nc2ncc3c(Br)nn(-c4cc(F)c5ncccc5c4)c3n2)C1 [(1R,3R)-3-[[3-bromo-1-(8-fluoro-6-quinolyl)pyrazolo[3,4-d]pyrimidin-6-yl]amino]-1-(methoxymethyl)-N-methyl-cyclopentane-carboxamide] |
